Assay results taken from US20240075093A1, “COMPOSITIONS AND METHODS OF TREATING A PI3K MEDIATED DISEASE” (VIRGINIA TECH INTELLECTUAL PROPERTIES, INC., priority 2020, published 2024).
Values belong to the compound of their own block, whether it stands above or below them. Where no end group is shown, it is not given here.

Assays:
SF295 cells [1] = test: MTS cell viability assay; assay type: cell-based; conditions: 50 μM peptides, 4 days
Method: (§1) (FIG. 12A) p110βC2in. CPP: cell-penetrating peptide. Simulated p110βC2in (rainbow as represented in greyscale) is shown. (FIG. 12B) FITC-p110βC2in in LN229/GSCs was imaged using a fluorescence microscope. Upper: FITC; lower: bright view. (FIG. 12C) PI3K/AKT activity affected by 100 μM p110βC2in (+) or C2Scramble-1 (−). (FIG. 12D) MTS Cell viability assay. Cells were treated with 50 μM peptides for 4 days. Student t test was used to determine P values.
Cell viability was measured by the MTS assay. P values were determined using the student t test or one-way ANOVA. Error bars represent three independent experiments.
This scheme has been repeated in experiments presented hereafter. Cell viability was determined using the MTS viability assay. Percentages of cell viability were obtained by normalizing the MTS readings of treatment groups to that of DMSO group. (FIG. 34B) Scores of Excess Over Bliss (EOB) calculated using the Bliss Independence model. The drug combination is synergistic if EOB is more than 0%, additive if EOB equals to 0%, or antagonistic if EOB is less than 0%. […] (FIG. 34D) EOB scores of drug combinations in LN229 and VTC-001 cells. (FIG. 34E) Caspase 3/7 activity in VTC-103 and VTC-001 cells. The activity of cleaved caspase 3/7 (active) was determined using a luminescence assay. Shown are luminescence readings. (FIG. 34F) EOB scores of drug combinations in VTC-103 and VTC-001 cells. […] SF295 cells were subcutaneously injected into immuno-deficient mice. […] Tumor volumes are shown. […] Cell viability was determined using the MTS viability assay. Percentages of cell viability were obtained by normalizing the MTS readings of treatment groups to that of shNS group. […]
Cell viability was determined by the MTS cell viability assay (Promega) as described previously 21,24-27. […] At each hour time point, the absorbance at 490 nm was measured using a FilterMax F3 microplate reader (Molecular Devices, LLC) according to the manufacturer's instructions. Percent cell viability was obtained by dividing the absorbance of treatment groups to those of untreated and respective vehicle control groups.

[2] = tested on: PI3K/AKT signaling in SF295 cells; test: immunoblotting of PI3K/AKT signaling in SF295 cells; assay type: cell-based; conditions: for AKT activity: 100 μM peptide
Method: SF295 cells were treated with 200 μM Ante-Selectide-18 for 4 days with a replenishment of fresh peptide every day. The vehicle was used as the control. PI3K/AKT signaling was analyzed using immunoblotting. Three signaling pathways (GSK3b, RAC1/CDC42, and MTOR) are shown. ACTB is the loading control.
Invasion molecules RAC1/CDC42 and MMPs are shown. Images were quantified using Image J. 0 h time point is set as 1.0. […] Apoptosis molecules FOXO3, BIM, and c-CASP3 are shown. (FIG. 9C) Invasion/survival signaling downstream of p110p.
as §1
In FIG. 3 Applicant tested whether Ante-Selectide-18 affects PI3K signaling in GBM cells. […] In contrast, another PI3K/AKT downstream target MTOR was not inhibited by this peptide.

tumor growth in mice = test: GBM tumor growth in mice; assay type: in vivo
p110β^hyper cells = test: melanoma cell viability (CellTiter Blue); assay type: cell-based; conditions: 0-40 μM of inhibitors; for selective inhibition of cell viability: p110β^hyper cells versus MelST
Method: (§2) (FIG. 49A) Immunoblotting of p110s and signaling molecules. 3-actin (ACTB) was used as the loading control. (FIG. 49B) Summary of genetic mutations and protein levels in melanoma cells. Information regarding hot spot mutations was retrieved from e.g., DepMap. (FIG. 49C) Cells were treated with 0-40 μM of inhibitors. Cell viability was measured using CellTiter Blue. IC50s were calculated using Graphpad.
(§3) (FIG. 52A) Cells were treated with 10 μM Selectide-18-FITC for 1 h and imaged immediately or after 96h. (FIG. 52B) Selectide-18-FITC in melanoma cells were imaged at different times. FITC was quantified using Image J and FITC intensities at different times were normalized with that at 1 h. Half-life was calculated using GraphPad. (FIG. 52C) UACC-62, MelST, or MeWo cells were treated with 50 μM of Selectide-18 for 4 days with daily repeated dosing. (FIG. 52D) MelST or melanoma cells were treated with 50 μM of Selectide-18 for 6 days with daily repeated dosing. Cell viability was measured using Cell-Titer Blue. (FIG. 52E) MelST, UACC-62, or MeWo cells were treated with Scramble or Selectide-18 at different doses. IC50s were calculated using GraphPad. (FIG. 52F) Nod scid mice bearing UACC-62 subcutaneous tumors were treated with Selectide-18 (3 mg/kg) intratumoral injection/daily) for 16 days. Tumors were measured using a caliper and tumor volumes were calculated as (length×width2))/2. Student t test or ANOVA was used to determine P values. ns: not significant; **: P<0.01; ***P<0.001.

LN229/GSCs [3] = test: TMZ sensitivity of LN229/GSCs; assay type: cell-based; conditions: Homo sapiens, LN-229
AKT = AKT activation in GBM cells; assay type: cell-based
SF295 cells [4] = test: wound-healing (migration) assay; assay type: cell-based; conditions: 8 μM, 24 hours
Method: (§4) (FIG. 8A) Wound-healing assay. Cells were plated confluently and then treated with PI3K isoform-selective inhibitors at 8 μM for 24 hours. Cells were imaged at 0- and 24-hour time point. Images of 24-hour time point are shown. Scale bar: […]. (FIG. 8B-8D) Quantification of migration distance. Images from three different areas were analyzed using Image J. Migration distances were obtained by subtracting 24-hour measurements with those of 0-hour.

LN229/GSCs [5] = test: wound-healing (migration) assay; assay type: cell-based; conditions: 8 μM, 24 hours
Method: as §4

MDA-MB-435S cells = test: melanoma cell viability (CellTiter Blue); assay type: cell-based; conditions: 0-40 μM, CellTiter Blue
Method: as §2, §3

PI3K in SK-MEL-94 cells = test: PI3K activity in melanoma cells (immunoblotting); assay type: cell-based; conditions: 10 μM AZD6482
PI3K in SK-MEL-147 cells = test: PI3K activity in melanoma cells (immunoblotting); assay type: cell-based; conditions: 10 μM AZD6482
p110c = p110c (Homo sapiens, UniProt P42336); test: PI3K subunit activity ELISA; assay type: biochemical; conditions: 100 nM
Method: (§5) Relative activity is the ratio of respective treated groups to their non-treated controls.
(§6) Applicant also included a control scramble peptide containing the antennapedia sequence followed by the amino acid sequence of Ante-Selectide-18 randomly scrambled. […] Applicant reports that this drug is not effective at inhibiting the kinase activity of p110b or other PI3K subunits at 100 nM, showing the promise of the Ante-Selectide-18 peptide as a potent selective p110b inhibitor at a low dose.

p110δ = p110δ (Homo sapiens, UniProt O00329); test: PI3K subunit activity ELISA; assay type: biochemical; conditions: 100 nM
Method: as §5, §6

p110γ = p110γ (Homo sapiens, UniProt P48736); test: PI3K subunit activity ELISA; assay type: biochemical; conditions: 100 nM
Method: as §5, §6

p110b = p110b (Homo sapiens, UniProt P42338); test: p110b activity ELISA (cell-free kinase assay); assay type: biochemical; conditions: ELISA; for activity of p110b: 100 nM, isolated protein subunit
Text: The activity of the p110b PI3K catalytic subunit was monitored via ELISA upon increasing doses of Ante-Selectide-18.
as §5
(FIG. 51A) 3D of a p110β/p85α complex determined by SWISS-MODEL and Cluspro. (FIG. 51B) Protein sequences were aligned using COBALT. C2 domains (top) are show. Red bars: same residues; Grey bars: different residues; Red lines: missing residues. […] in p110β C2 (bottom) is shown and termed as 018. Docking of p110β and p85α (FIG. 51C) or p110α and p85α (FIG. 51D) was done by SWISS-MODEL, Cluspro, and Chimera. The 018 motif is labeled in magenta. Deletion of β18 motif (FIG. 51E) changed the 3D shapes of p110β/p85 (FIG. 51C). (FIG. 51F) p110β cell-free kinase assay. An enzyme-linked immunosorbent assay (ELISA) was used to measure levels of lipids PIP2/PIP3. (FIG. 51G) Effect of PI3K inhibitors on p110s using ELISA. p110β (FIG. 51H) or p110α (FIG. 51I) was docked with Selectide-18-bound p85α using Cluspro/Chimera.
as §6

[6] = 200 μM, 4 days, fresh peptide every day

Sequence of p110b (P42338 whole entry): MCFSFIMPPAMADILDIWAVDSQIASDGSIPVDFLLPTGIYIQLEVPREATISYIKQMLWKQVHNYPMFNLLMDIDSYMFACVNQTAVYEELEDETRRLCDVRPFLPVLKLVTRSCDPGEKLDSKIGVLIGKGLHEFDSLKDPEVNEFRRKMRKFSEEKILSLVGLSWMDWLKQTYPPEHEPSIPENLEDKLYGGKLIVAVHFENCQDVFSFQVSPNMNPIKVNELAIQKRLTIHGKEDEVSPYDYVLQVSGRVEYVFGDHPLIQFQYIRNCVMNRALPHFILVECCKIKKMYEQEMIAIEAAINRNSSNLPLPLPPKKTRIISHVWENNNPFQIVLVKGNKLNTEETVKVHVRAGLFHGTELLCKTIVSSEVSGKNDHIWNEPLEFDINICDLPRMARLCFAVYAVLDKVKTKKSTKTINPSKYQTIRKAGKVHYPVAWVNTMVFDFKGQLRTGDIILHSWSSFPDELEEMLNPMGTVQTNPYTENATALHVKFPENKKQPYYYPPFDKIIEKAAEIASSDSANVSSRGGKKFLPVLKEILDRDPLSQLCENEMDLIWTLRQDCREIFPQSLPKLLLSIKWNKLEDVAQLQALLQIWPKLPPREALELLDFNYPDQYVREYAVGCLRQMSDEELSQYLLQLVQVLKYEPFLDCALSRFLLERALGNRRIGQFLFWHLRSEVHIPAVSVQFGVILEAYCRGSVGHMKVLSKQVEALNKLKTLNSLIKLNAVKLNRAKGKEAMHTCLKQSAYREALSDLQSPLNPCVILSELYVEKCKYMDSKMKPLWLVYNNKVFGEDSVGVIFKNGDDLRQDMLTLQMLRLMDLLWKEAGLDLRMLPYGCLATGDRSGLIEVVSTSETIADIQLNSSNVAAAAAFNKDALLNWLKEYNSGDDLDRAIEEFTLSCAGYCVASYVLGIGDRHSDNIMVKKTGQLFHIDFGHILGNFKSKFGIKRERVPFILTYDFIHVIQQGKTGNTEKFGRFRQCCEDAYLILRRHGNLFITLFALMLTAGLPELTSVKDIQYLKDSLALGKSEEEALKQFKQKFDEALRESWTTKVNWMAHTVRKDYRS
Sequence of p110δ (O00329 whole entry): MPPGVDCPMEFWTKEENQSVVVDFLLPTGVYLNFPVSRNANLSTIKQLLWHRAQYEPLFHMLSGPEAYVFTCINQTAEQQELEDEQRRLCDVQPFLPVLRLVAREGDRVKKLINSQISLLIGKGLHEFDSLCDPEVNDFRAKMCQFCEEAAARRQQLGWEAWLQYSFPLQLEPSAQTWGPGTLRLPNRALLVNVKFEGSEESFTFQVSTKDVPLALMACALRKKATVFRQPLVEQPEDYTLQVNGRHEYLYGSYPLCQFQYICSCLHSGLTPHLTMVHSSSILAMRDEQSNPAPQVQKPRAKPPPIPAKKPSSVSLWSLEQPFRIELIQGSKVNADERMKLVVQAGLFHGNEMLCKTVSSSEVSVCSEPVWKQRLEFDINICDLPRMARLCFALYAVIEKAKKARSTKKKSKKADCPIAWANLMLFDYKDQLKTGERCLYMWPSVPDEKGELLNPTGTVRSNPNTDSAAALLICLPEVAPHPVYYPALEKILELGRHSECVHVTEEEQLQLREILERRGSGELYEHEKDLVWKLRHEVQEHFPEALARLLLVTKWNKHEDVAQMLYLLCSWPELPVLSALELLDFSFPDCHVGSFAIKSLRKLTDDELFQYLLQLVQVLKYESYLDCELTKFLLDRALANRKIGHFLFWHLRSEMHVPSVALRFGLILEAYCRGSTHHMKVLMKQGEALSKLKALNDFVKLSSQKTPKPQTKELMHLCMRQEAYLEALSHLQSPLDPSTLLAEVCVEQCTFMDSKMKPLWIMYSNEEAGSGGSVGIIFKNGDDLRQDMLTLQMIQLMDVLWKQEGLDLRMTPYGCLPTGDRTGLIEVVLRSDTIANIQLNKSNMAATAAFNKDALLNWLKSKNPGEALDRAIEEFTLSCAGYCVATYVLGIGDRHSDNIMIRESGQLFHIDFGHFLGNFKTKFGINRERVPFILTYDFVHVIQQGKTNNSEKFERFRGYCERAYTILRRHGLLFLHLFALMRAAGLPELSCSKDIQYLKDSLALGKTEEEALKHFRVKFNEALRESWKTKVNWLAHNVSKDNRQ
Sequence of p110δ (P27986 whole entry partner): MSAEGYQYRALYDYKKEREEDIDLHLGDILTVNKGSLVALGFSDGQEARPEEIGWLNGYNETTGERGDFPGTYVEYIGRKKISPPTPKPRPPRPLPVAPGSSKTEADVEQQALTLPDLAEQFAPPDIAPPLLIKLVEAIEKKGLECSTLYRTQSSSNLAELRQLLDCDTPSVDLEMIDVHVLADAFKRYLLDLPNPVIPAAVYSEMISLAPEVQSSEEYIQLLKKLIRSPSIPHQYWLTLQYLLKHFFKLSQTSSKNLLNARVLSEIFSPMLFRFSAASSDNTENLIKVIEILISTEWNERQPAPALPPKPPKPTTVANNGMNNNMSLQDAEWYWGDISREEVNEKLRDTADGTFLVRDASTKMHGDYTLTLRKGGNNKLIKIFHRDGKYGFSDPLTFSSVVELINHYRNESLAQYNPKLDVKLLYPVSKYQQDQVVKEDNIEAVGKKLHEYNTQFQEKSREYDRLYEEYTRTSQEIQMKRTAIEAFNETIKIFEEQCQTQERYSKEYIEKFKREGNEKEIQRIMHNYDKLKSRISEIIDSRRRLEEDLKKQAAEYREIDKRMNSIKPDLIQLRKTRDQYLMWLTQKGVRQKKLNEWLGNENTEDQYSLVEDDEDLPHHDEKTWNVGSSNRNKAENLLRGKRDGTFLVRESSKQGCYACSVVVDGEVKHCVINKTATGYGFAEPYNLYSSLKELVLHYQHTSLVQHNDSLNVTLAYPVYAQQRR
Sequence of p110γ (P48736 whole entry): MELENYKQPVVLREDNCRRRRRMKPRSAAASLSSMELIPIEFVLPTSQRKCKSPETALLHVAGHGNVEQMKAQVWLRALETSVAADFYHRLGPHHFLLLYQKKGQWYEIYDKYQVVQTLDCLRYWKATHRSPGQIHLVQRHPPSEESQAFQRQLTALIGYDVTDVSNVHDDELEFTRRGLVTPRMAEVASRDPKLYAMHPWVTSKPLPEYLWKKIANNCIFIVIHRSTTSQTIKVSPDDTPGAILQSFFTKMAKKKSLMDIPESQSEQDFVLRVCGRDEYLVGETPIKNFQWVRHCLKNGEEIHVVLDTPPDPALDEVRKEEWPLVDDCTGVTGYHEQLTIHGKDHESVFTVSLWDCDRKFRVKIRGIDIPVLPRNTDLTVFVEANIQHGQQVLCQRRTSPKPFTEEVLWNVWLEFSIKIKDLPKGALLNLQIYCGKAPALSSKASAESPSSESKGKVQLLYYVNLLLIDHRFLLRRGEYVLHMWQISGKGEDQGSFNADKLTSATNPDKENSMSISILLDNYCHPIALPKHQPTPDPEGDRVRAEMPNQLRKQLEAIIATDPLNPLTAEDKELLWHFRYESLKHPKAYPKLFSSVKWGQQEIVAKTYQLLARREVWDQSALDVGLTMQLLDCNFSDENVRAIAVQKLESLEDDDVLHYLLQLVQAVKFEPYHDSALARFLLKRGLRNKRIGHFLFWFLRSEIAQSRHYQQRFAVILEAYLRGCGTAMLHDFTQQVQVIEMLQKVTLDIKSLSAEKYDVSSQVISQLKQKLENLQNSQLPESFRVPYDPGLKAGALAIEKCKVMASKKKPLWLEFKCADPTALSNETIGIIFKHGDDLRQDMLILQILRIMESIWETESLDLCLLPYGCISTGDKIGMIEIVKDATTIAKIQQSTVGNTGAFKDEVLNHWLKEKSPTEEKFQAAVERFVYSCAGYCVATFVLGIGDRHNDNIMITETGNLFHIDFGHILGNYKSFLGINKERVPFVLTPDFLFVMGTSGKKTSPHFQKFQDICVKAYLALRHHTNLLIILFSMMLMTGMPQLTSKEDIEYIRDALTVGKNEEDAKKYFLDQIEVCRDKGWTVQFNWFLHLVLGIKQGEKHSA
Sequence of p110c (P42336 whole entry): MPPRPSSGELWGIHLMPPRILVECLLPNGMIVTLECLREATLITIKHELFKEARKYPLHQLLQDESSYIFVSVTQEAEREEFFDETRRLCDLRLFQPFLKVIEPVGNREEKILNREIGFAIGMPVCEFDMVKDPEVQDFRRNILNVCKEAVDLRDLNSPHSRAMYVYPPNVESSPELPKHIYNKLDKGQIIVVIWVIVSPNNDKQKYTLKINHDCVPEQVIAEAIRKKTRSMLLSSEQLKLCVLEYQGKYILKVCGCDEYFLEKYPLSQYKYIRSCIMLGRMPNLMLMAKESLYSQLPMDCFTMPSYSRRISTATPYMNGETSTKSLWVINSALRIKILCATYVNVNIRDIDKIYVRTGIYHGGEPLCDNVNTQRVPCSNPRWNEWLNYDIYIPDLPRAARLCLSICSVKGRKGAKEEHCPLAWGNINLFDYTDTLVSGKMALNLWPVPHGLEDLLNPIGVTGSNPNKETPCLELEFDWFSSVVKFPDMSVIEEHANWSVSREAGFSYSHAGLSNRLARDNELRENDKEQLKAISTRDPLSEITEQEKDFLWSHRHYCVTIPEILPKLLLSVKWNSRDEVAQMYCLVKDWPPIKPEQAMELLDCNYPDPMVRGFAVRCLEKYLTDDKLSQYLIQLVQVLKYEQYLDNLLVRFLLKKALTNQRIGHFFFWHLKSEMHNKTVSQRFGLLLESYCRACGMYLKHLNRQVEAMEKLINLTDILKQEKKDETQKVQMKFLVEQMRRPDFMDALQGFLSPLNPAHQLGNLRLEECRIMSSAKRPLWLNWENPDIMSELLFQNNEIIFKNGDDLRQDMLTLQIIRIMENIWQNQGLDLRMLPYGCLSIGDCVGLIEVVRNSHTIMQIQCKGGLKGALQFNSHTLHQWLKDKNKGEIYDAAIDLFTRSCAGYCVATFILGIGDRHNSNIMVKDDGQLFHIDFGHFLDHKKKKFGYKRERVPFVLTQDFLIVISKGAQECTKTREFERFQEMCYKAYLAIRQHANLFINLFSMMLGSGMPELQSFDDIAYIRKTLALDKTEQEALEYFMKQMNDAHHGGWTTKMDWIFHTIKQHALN

Compound: scramble peptide: control C2Scramble peptide, e.g. TYKTSKRISKQTIKKPNT fused with RRRRRRRR (IYKTSKTRSQKTKIKPNT)
cell viability (SF295 cells [1]): not
AKT activity [2]: not

Compound: Cc1c(Cn2c(C)nc3c(C(=O)O)cc(N4CCOCC4)cc32)cccc1C(F)(F)F [GSK2636771]
tumor growth in mice (tumor growth in mice): slow down tumor growth

Compound: CC(C)(C)NS(=O)(=O)c1cncc(-c2cc(F)c3nc(N)nn3c2)c1 [CZC24832]
selective inhibition of cell viability (p110β^hyper cells): did not show a selective inhibition of cell viability

IC50 (LN229/GSCs [3]): 100 µM
Compound: Cn1nnc2c(C(N)=O)ncn2c1=O [TMZ, temozolomide]

Compound: Cc1ccc([N+](=O)[O-])cc1S(=O)(=O)N(C)/N=C/c1cnc2ccc(Br)cn12 [PIK-75]
AKT activation / selectivity (AKT): non-selectively inhibits AKT and ERK

Compound: Nc1cc(C(F)(F)F)c(-c2cc(N3CCOCC3)nc(N3CCOCC3)n2)cn1 [BKM120]
cell migration (SF295 cells [4]): inhibited the migration
cell migration (LN229/GSCs [5]): inhibited the migration

Compound: Cc1cc([C@@H](C)Nc2ccccc2C(=O)O)c2nc(N3CCOCC3)cc(=O)n2c1 [AZD6482]
sensitivity to AZD6482 (MDA-MB-435S cells): not sensitive and not
cytotoxicity (p110β^hyper cells; CellTiter Blue): cytotoxic
PI3K activity (PI3K in SK-MEL-94 cells): inactivated PI3K
PI3K activity (PI3K in SK-MEL-147 cells): not

activity of PI3K subunit p110c (p110c): does not affect
activity of PI3K subunit p110δ (p110δ): does not affect
activity of PI3K subunit p110γ (p110γ): does not affect
activity of p110b (p110b): inhibits the activity
activity of p110b (p110b; listed as ante-Selectide-18): Only Inhibits p110b
IC50 (p110b; increasing doses): 0.105 µM
Compound: RQPKIWFPNRRKPWKKTKKSTKTINPSKYQTIRK [Ante-Selectide-18]
MTOR (PI3K/AKT downstream target) [2, 6]: not inhibited
active forms of GSK3b and RAC1/CDC42 [2, 6]: remarkable decrease
levels of phosphorylated form of AKT [2, 6]: substantially reduced

activity of p110b (p110b): didn't inactivate p110β
Compound: IYKTSKTRSQKTKIKPNT (Scrambled control peptide) [scrambled peptide]

Compound: RRRRRRRRTKKSTKTINPSKYQTIRK (p110bC2in - Selectide-18 with a cell penetrating peptide) [p110βC2in]
cell viability (SF295 cells [1]): suppressed cell viability
AKT activity [2]: blocked AKT activity

Compound: Nc1nc2cc(-c3ccc4ncc(C(=O)N5CCOCC5)n4c3)ccc2o1 [MLN1117]
selective inhibition of cell viability (p110β^hyper cells): did not show a selective inhibition of cell viability
